This is an account of results in patent US9078810B2, “Transdermal delivery system” (Acrux DDS Pty Ltd., priority 2007, dated 2015).

The nature of data set [1]: Diclofenac Transdermal Spray finite-dose in vitro diffusion study (Example 6). It counts as in vitro ADME, human. Particulars: 24 hr. How it is done:
Finite-dose in vitro diffusion studies were undertaken dermatomed skin (Padgett Model B or S electric dermatome set at 500 μm) prepared from excised […], abdominal skin.
These experiments were conducted over 24 hours using flow-through systems with a 1-cm^2 administration area.
Following a 2-h equilibration of the skin with the receptor solution (RS) of phosphate-buffered saline (PBS) pH 7.4, the stratum corneum surface was dosed with a volume of 3.6 μL/cm^2 (unless otherwise indicated) of a test formulation using a positive displacement pipette. The formulation was spread evenly over the skin area using the pipette tip.
The Diclofenac Transdermal Spray formulations were as follows: — • 0.1-2.0% Diclofenac (DIC) diethylamine in Isopropyl alcohol (IPA) [no enhancer] • 0.1-2.0% DIC diethylamine, 5% Octyl Salicylate (OS) in IPA [OS alone] • 0.1-2.0% DIC diethylamine, 2.5% Polyethylene glycol 200 (PEG 200) in IPA [PEG 200 alone] • 0.1-2.0% DIC diethylamine, 5% OS, 2.5% PEG 200 in IPA [OS+PEG 200]
A commercially available Diclofenac gel (approximately 5 mg/cm2) was used as a control. The commercially available gel was applied using a solid cap to simulate the rubbing action required when using the product. Approximately 7 mg gel was applied to the circular surface of a black polypropylene cylindrical cap (Alltech catalogue #98105, diameter 11 mm). […]

Data set [2] is classed as in vitro ADME, human. The source says: The receptor solutions (Phosphate Buffered Saline pH7.4) maintained sink conditions below the skin.
The formulations consisted of:— • Composition (Camp) 1 (Control): 1.35% Nestorone (NES), 0.35% Ethinylestradiol (EE), 5% Octyl Salicylate (OS) in Isopropyl Alcohol (IPA) • Comp 2: 1.35% NES, 0.35% EE, 5% OS, 5% Polyethylene glycol 400 (PEG400) in IPA • Comp 3: 1.35% NES, 0.35% EE, 0.5% Polyethylene glycol (PEG200) in IPA • Comp 4: 1.35% NES, 0.35% EE, 5% OS, 0.5% PEG200 in IPA • Comp 5: 1.35% NES, 0.35% EE, 1% PEG200 in IPA • Comp 6: 1.35% NES, 0.35% EE, 5% OS, 1% PEG200 in IPA • Comp 7: 1.35% NES, 0.35% EE, 2.5% PEG200 in IPA • Comp 8: 1.35% NES, 0.35% EE, 5% OS, 2.5% PEG200 in IPA • Comp 9: 1.35% NES, 0.35% EE, 5% PEG200 in IPA • Comp 10:1.35% NES, 0.35% EE, 5% OS, 5% PEG200 in IPA • Comp 11: 1.35% NES, 0.35% EE, 10% PEG200 in IPA • Camp 12: 1.35% NES, 0.35% EE, 5% OS, 10% PEG200 in IPA

A short description of data set [3]: Finite-dose in vitro diffusion study, flow through diffusion cells, 3.6 μL/cm2 (Example 4). The following applies: effect of PEG200 (1.0-2.5%) in combination with 5% OS, 5% TES in ethanol (95%), 24 hr.
Experimental: These experiments were performed over 24 hours using stainless steel, flow through diffusion cells based on those described previously (Cooper, E. R. J. Pharm. Sci. 1984, 73, 1153-1156) except that the cell was modified to increase the diffusion area to 1.0 cm2. The formulations were applied using a finite dose technique (Franz, T. J. Curr. Probl. Dermatol., 1978, 7, 58-68) to mimic clinical dosing conditions at an applied dose volume of 3.6 μL/cm2. […] The receptor solutions (0.002% w/v NaN3) maintained sink conditions below the skin.
Data set [4] can be described thus: Finite-dose in vitro diffusion study, flow through diffusion cells, 15 μL/cm2 (Example 3). Particulars: effect of PEG200 (0.5-2.5%) in combination with 5% OS, 2% TES, 2% PVP, 30% IPA in ethanol, 24 hr.
Experimental: These experiments were performed over 24 hours using stainless steel, flow through diffusion cells based on those described previously (Cooper, E. R. J. Pharm. Sci. 1984, 73, 1153-1156) except that the cell was modified to increase the diffusion area to 1.0 cm2. The formulations were applied using a finite dose technique (Franz, T. J. Curr. Probl. Dermatol., 1978, 7, 58-68) to mimic clinical dosing conditions at an applied dose volume of 15 μL/cm2. […] The receptor solutions (0.002% w/v NaN3) maintained sink conditions below the skin.
The formulations consisted of:— • Comp 1: 2% Testosterone (TES), 5% Octyl Salicylate (OS), 2% polyvinyl pyrrolidine (PVP), 30% isopropyl alcohol (IPA) in ethanol (95%) • Comp 2: 2% TES, 5% OS, 2% PVP, 30% IPA, 0.5% polyethylene glycol 200 (PEG200) in ethanol (95%) • Comp 3: 2% TES, 5% OS, 2% PVP, 30% IPA, 1.0% PEG200 in ethanol (95%) • Comp 4: 2% TES, 5% OS, 2% PVP, 30% IPA, 2.5% PEG200 in ethanol (95%)
Data set [5] in a line: Estradiol Spray finite-dose in vitro permeation study (Example 7). The following applies: 24 h. The data set is classed as in vitro ADME, human. The method, then:
Finite-dose in vitro permeation studies were undertaken using dermatomed skin (Padgett Model B or S electric dermatome set at 500 μm) prepared from excised […], abdominal skin.
These experiments were conducted over 24 hours (h) using flow-through systems with a 1-cm2 administration area. […] The receptor solution was maintained at a nominal flow rate of 0.5 mL/h by a peristaltic pump (Watson Marlow 520S Peristaltic Pump with 313A adaptor and 308MC 8 roller pump-head; Stauff Corporation, Australia). The cells were placed on a heater bar to keep the temperature of the skin at 32±1° C.
Following a 2-h equilibration of the skin with the receptor solution (RS; 0.002% sodium azide), the stratum corneum surface was dosed with 3.6 μL/cm^2 of an Estradiol Transdermal Spray formulation using a positive displacement pipette. The formulation was spread evenly over the skin area using the pipette tip.
The Estradiol transdermal spray formulations contained:— • Estradiol (E2)+Octyl Salicylate (OS) in Isopropyl Alcohol IPA • E2+OS+Polyethylene glycol (PEG200) in Isopropyl Alcohol IPA • E2+OS+Polyethylene glycol 400 (PEG400) in IPA

A short description of data set [6]: Finite-dose in vitro diffusion study, Franz-type cells, 24 hours (Example 1). It counts as in vitro ADME, human. The following applies: effect of PEG200 in combination with OS vs 5% OS comparison composition, 2.8% NETA, 0.55% E2, 3.6 μL/cm2. How it is done:
These experiments were performed over 24 hours using Franz-type cells. Pre-cut skin membranes were mounted as a barrier between the halves of greased (high vacuum grease, BDH) horizontal Franz-type permeation cells in the middle of the receptor chamber of the cell with the stratum corneum facing the donor chamber. The area available for permeation was approximately 0.925 cm2. The receptor chambers of the permeation cells were filled with the receptor phase (Phosphate Buffered Saline pH 7.4) and capped. The permeation cells were immersed in a constant temperature water bath such that the receptor chambers were maintained at 35° C. Receptor chamber contents were continuously agitated by small PTFE-coated magnetic stirrer bars driven by submersible magnetic stirrers. The skin was allowed to equilibrate to temperature with receptor solution for 1 h in the water bath prior to dosing.
The formulations were applied to the skin at a dose of 3.6 μL/cm2. The applied formulation was spread over the skin area using an Eppendorf positive displacement pipette tip without breaking the skin membrane. […]

Read-outs that look alike come from different tables or passages of the source.

As for `O=C(O)Cc1ccccc1Nc1c(Cl)cccc1Cl` [DIC, Diclofenac], the “permeation through human epidermis in vitro” value was “significantly enhance” in data set [1] (effect of PEG200 in combination with OS, DIC diethylamine, 5% OS, 2.5% PEG 200 in IPA) and “decrease” in data set [1] (effect of PEG 400, either alone or in combination with OS).

As to `C#C[C@]1(O)CC[C@H]2[C@@H]3CCc4cc(O)ccc4[C@H]3CC[C@@]21C` [Ethinylestradiol], the “permeation through human epidermis in vitro” value in data set [2] is “inhibit”.

As to `C[C@]12CC[C@H]3[C@@H](CCC4=CC(=O)CC[C@@]43C)[C@@H]1CC[C@@H]2O` [Testosterone], the “permeation through human epidermis in vitro” value in data set [3] and in data set [4] was “significantly enhance” in each case.

Consider `C[C@]12CC[C@@H]3c4ccc(O)cc4CC[C@H]3[C@@H]1CC[C@@H]2O` [estradiol, Estradiol], for which the “permeation through human skin in vitro” value is “synergistically enhanced” in data set [5] (effect of PEG200 combined with OS in IPA, 3.6 μL/cm^2); “no significant effect” in data set [5] (effect of PEG400 alone and PEG400+OS compared with the control formulation). Moreover, in data set [6], the “permeation through human epidermis in vitro” value is “significantly enhance”.

With `C=C1C[C@H]2[C@@H]3CCC4=CC(=O)CC[C@@H]4[C@H]3CC[C@]2(C)[C@@]1(OC(C)=O)C(C)=O` [Nestorone], the “permeation through human epidermis in vitro” value in data set [2] is reported as “did not have a significant effect”.

As to `C#C[C@]1(OC(C)=O)CC[C@H]2[C@@H]3CCC4=CC(=O)CC[C@@H]4[C@H]3CC[C@@]21C` [Norethisterone Acetate], the “permeation through human epidermis in vitro” value in data set [6] is on record as “significantly enhance”.
